Assay [1] has as its system monocrotaline-induced model of PAH. Description: anti-inflammatory effect in monocrotaline-induced model of PAH (lymph node weight, heart homogenate cytokines by ELISA). The format is in vivo, male Wistar Rats. The note with it: 0.06 mg/kg, MCT rats. From the text:
In the experiment described in example 5, the animals were killed for postmortem analyses of inflammatory markers.
In 1 out of 5 patients with PAH, the mediastinal lymph nodes are enlarged due to inflammation-related edema (BERGIN, C. J., PARK, K. J. Lymph node enlargement in pulmonary arterial hypertension due to chronic thromboembolism. J Med Imaging Radiat Oncol, 52(1):18-23. 2008). Edematous organs weigh more, due to the increased liquid content, therefore we weighed several organs of the animals of example 5 post-euthanasia.
Samples of hearts of the monocrotaline study were investigated to uncover the potential anti-inflammatory action of SEQ ID NO: 19. Hearts were kept on ice during all sample homogenization processes. Lysis buffer containing 1% protease inhibitor cocktail (Sigma) diluted in phosphate-buffered saline (PBS) was added in a proportion of 1 mL for each sample. Sodium orthovanadate (SIGMA) 1 mM was also added. Tissues were homogenized and then centrifuged at 10,000 g for 10 min. Supernatants of each sample were collected into sterile identified tubes for measurements of total protein and cytokine levels (tumor necrosis factor (TNF)-α, interferon (INF)-γ, and interleukin (IL)-1β).
Total protein values in the samples were measured using the Bradford assay (BioRad, Hercules, Calif., USA), according to manufacturer's instructions. Briefly, the protocol was performed in a microplate in a final volume of 150 μl. A calibration curve linear range between 0.025 and 2.0 mg/ml was prepared with bovine serum albumin (BSA, SIGMA). Protein solutions were assayed in duplicate. Samples were diluted 20-fold into lysis buffer, and then 25 μl from these samples was loaded into each well. Using a multichannel pipet, 125 μl of Quick Start™ Bradford 1× Dye Reagent solution was added to yield a final volume of 150 μl. The samples were incubated at room temperature for 5 min, and the absorbance was then measured with a spectrophotometer at 595 nm (SpectraMax Microplate reader, Molecular Devices, San Jose, Calif., USA). The standard curve was plotted as a linear regression line that was interpolated with the mean absorbance of each sample in order to find a sample's total protein concentration expressed as mg/ml.
Concentrations of TNF-α, INF-γ, and IL-1β were measured using an enzyme-linked immunosorbent assay (ELISA) for heart homogenates. TNF-α (Catalog #900-K54) and INF-γ (Catalog #900-K98) kits were purchased from Peprotech (Rocky Hill, […]., USA) while the IL-1β (DY401) kit was from R&D Systems (Minneapolis, Minn., USA). The assays were performed in accordance with the manufacturer's recommendations.
Data analyses were performed with a statistical software package (Prism version 5.0, Graph-Pad Software, San Diego, Calif.). Data were expressed as mean±SEM. […]

The test system of assay [2] is monocrotaline-induced model of pulmonary arterial hypertension (PAH). The assay can be described thus: hemodynamic parameters and heart remodeling in monocrotaline-induced model of PAH. The format is in vivo, male Wistar Rats. The note with it: 0.06 mg/kg intranasal twice daily for 14 days. The source says: The monocrotaline (MCT) model is the most widely used animal model of PAH, being the oldest in existence and best described among the available models. This model offers the advantage of mimicking several key aspects of human PAH, including vascular remodeling, proliferation of smooth muscle cells, endothelial dysfunction, up-regulation of inflammatory cytokines, and right ventricle failure, after a single intraperitoneal or subcutaneous MCT injection (GOMEZ-ARROYO, J. G., FARKAS, L., ALHUSSAINI, A. A., FARKAS, D., KRASKAUSKAS, D., VOELKEL, N. F., BOGAARD, H. J. The Monocrotaline Model of Pulmonary Hypertension in Perspective. Am J Physiol Lund Cell Mol Physiol, 302(4): L363-9. 2012).
The currently preferred species for the study of MCT-induced PAH is the rat, with clinical signs of the illness manifesting in 3-7 days after the MCT injection in the form of anorexia, listlessness, failure to gain weight, and tachypnea. As the lung injury and vascular remodeling progress, the animals develop variable degrees of dyspnea, weakness, diarrhea and peripheral cyanosis (SCHOENTAL R., HEAD, M. A. Pathological changes in rats as a result of treatment with monocrotaline. Br J Cancer, 9(1):229-37. 1955). One week after the MCT injection, endothelial damage, inflammatory infiltration, and edema can be observed, but no increase in pulmonary arterial pressure (PAP). After two weeks, PAP is increased leading to right ventricle (RV) hypertrophy by the third week after drug administration (WEST, J., HEMMES, A. Experimental and transgenic models of pulmonary hypertension. Compr Physiol, 1(2):769-82. 2011).
To assess the potential benefit of SEQ ID NO: 19 in the treatment of PAH, we used adult healthy male Wistar Rats, which were then randomized into two groups: monocrotaline-induced PAH (MCT, n=14), in which animals received 60 mg/kg of MCT intraperitoneally (C2401, Sigma Chemical Co., St Louis, Mo., USA, Batch Number: WXBC4737V) and 2) control (CTRL, n=7), in which animals received a similar volume of saline solution intraperitoneally. This would be day 0 of the study. On the same day, prior to being randomized, the animals were subjected to echocardiographic analysis to establish a baseline. On day 14, another echocardiography was done, and PAH animals were further randomized to receive intranasal saline (SAL) or SEQ ID NO: 19 (0.06 mg/kg), twice daily for 14 days. On day 28, echocardiographies were repeated, RV exit area, left ventricle (LV) area, and PAT/PET (pulmonary arterial acceleration time (PAT)/pulmonary arterial ejection time (PET) ratio). In the PAH disease, the increase of PAP leads to an increase in RV area due to the increased pressure, and a decrease in the LV area, due to a reduction in blood flow to the left ventricle. […] Hemodynamic parameters were measured by invasive RV catheterization, including the systolic pressure of RV (RVSP) and the dP/dt ratio (a derivative of pressure/derivative of maximum time), which is correlated to the pressure in the RV.
The experiments were analyzed with two-way ANOVA, followed by Bonferroni's post-test to determine statistical significance. […]

[3] abbreviates: RV catheterization, vs MCT+Vehicle.
Where [4] appears, read: echocardiography, vs MCT+vehicle.

Where a SMILES comes first, the peptide text is derived from it.

`CC[C@H](C)[C@H](NC(=O)[C@H](Cc1c[nH]c2ccccc12)NC(=O)[C@H](Cc1ccccc1)NC(C)=O)C(=O)N[C@@H](C)C(=O)N[C@@H](Cc1c[nH]c2ccccc12)C(=O)N[C@@H](Cc1ccc(O)cc1)C(=O)N[C@@H](CCCCN)C(=O)N[C@@H](CC(C)C)C(=O)N[C@@H](C)C(N)=O` [SEQ ID NO: 19, Ac-Phe-Trp-Ile-Ala-Trp-Tyr-Lys-Leu-Ala-NH2] (Ac-FWIAWYKLA-NH2): in assay [1] (ELISA), the “IL-1β in heart homogenates” value is listed as “decreases the cytokines to values similar to control”, the “INF-γ in heart homogenates” value was “decreases the cytokines to values similar to control” and the “TNF-α in heart homogenates” value is reported as “decreases the cytokines to values similar to control”. Further, the “edematous weight gain of mediastinal lymph nodes” value in assay [1] (post-euthanasia organ weight) is “able to reduce the edematous weight gain”. In assay [2] (setting [3]), the “dP/dt Max ratio” value is recorded as “decrease” and the “systolic pressure of RV (RVSP)” value is “decrease in RVSP”. For the same molecule, in assay [2] (setting [4]), the LV area entry was “increase in LV area”, the PAT/PET ratio entry is given as “increases the PAT/PET ratio to values similar to the non-treated group (control)” and the RV exit area result is listed as “decrease in RV exit area”.
